From PMC10174618, “Monoterpenoid aryl hydrocarbon receptor allosteric antagonists protect against ultraviolet skin damage in female mice” (Nature Communications, 2023)

Assays:
Assay in all cases: biochemical
Design in all cases: KINOMEscan scanMAX active site-directed competition binding assay, percent of control, 468 kinases
Conditions in all cases: competition binding, percent of control
PKN1 = PKN1 (Homo sapiens, UniProt Q16512)
Procedure, shortened: (§1)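 Single-concentration screen (100 μM S-carvone) in a competition binding panel of 468 human kinases (KINOMEscan scanMAX); results given as percent of control, hit cutoff 35%.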

PIKFYVE = PIKFYVE (Homo sapiens, UniProt Q9Y2I7)
Procedure, shortened: as §1

FER = FER (Homo sapiens, UniProt P16591)
Procedure, shortened: as §1

CAMK1 = CAMK1 (Homo sapiens, UniProt Q14012)
CAMK1, sequence (Q14012 whole entry): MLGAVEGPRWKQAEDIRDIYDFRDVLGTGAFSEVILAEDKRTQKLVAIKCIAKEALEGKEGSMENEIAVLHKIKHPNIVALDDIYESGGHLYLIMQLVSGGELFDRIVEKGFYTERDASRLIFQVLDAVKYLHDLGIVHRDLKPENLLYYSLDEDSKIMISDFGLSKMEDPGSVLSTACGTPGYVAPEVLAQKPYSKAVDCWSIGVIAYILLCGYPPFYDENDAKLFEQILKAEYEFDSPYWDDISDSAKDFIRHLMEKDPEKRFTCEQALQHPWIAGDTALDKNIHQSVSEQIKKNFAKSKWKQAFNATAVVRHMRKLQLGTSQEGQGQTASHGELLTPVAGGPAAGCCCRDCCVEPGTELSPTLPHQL
Procedure, shortened: as §1

HIPK2 = HIPK2 (Homo sapiens, UniProt Q9H2X6)
HIPK2, sequence (Q9H2X6 whole entry): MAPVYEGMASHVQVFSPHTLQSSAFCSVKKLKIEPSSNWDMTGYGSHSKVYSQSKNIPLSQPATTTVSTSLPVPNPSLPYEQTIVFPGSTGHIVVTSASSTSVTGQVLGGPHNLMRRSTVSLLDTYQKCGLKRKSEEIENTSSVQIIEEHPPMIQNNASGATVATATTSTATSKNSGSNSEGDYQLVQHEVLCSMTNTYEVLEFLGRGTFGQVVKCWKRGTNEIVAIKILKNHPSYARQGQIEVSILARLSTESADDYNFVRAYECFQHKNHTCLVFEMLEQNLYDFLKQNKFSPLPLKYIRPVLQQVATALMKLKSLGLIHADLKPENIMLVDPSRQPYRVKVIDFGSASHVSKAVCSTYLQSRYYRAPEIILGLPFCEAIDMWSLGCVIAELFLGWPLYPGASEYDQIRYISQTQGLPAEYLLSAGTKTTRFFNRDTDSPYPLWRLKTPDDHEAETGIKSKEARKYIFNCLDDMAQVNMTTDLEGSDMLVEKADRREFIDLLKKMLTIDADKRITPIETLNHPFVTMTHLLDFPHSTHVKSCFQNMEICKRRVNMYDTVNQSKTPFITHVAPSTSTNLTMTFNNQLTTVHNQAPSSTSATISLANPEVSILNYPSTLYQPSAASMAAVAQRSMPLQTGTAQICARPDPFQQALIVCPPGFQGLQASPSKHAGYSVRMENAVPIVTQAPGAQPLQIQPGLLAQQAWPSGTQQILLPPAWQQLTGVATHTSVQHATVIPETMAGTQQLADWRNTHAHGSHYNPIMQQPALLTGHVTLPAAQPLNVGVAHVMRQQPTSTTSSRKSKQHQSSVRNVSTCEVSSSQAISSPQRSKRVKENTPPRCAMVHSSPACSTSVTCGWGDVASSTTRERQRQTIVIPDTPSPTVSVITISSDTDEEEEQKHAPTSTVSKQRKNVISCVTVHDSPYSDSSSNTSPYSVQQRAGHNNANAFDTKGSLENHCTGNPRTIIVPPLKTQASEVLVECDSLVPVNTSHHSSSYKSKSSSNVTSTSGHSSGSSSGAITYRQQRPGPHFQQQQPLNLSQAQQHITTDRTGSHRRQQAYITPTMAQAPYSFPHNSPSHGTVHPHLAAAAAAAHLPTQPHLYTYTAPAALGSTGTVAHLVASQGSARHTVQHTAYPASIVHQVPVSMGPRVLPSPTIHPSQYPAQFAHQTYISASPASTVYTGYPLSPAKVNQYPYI
Procedure, shortened: as §1

CDK8 = CDK8 (Homo sapiens, UniProt P49336)
Procedure, shortened: as §1

PRKCQ = PRKCQ (Homo sapiens, UniProt Q04759)
Procedure, shortened: as §1

CDK9 = CDK9 (Homo sapiens, UniProt P50750)
Procedure, shortened: as §1

KIT(V559D,T670I) = KIT(V559D,T670I) (Homo sapiens, UniProt P10721, T670I/V559D)
Procedure, shortened: as §1

NEK4 = NEK4 (Homo sapiens, UniProt P51957)
NEK4, sequence (P51957 whole entry): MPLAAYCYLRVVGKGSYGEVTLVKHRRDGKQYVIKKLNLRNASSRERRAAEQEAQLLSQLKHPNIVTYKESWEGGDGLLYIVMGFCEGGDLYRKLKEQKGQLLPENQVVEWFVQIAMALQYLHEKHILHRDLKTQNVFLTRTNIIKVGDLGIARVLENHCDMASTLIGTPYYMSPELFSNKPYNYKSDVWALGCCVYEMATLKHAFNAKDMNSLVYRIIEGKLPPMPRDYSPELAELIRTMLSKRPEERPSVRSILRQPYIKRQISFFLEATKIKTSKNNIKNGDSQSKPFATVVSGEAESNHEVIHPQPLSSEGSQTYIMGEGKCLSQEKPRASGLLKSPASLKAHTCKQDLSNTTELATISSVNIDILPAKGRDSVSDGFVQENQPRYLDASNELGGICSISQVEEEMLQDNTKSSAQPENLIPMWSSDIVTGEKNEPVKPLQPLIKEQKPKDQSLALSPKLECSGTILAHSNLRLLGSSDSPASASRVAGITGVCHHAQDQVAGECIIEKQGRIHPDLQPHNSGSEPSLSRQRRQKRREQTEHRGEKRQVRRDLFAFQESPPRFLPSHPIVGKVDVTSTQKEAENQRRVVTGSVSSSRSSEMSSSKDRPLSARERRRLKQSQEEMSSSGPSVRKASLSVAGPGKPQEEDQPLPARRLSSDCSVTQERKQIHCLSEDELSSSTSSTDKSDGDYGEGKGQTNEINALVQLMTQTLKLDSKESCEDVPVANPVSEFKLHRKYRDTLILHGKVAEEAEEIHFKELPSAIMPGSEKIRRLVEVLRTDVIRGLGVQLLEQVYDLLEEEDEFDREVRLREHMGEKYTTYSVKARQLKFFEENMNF
Procedure, shortened: as §1

MAP3K3 = MAP3K3 (Homo sapiens, UniProt Q99759)
Procedure, shortened: as §1

KIT(V559D,V654A) = KIT(V559D,V654A) (Homo sapiens, UniProt P10721, V559D/V654A)
Procedure, shortened: as §1

FES = FES (Homo sapiens, UniProt P07332)
Procedure, shortened: as §1

TAOK1 = TAOK1 (Homo sapiens, UniProt Q7L7X3)
Procedure, shortened: as §1

CASK = CASK (Homo sapiens, UniProt O14936)
CASK, sequence (O14936 whole entry): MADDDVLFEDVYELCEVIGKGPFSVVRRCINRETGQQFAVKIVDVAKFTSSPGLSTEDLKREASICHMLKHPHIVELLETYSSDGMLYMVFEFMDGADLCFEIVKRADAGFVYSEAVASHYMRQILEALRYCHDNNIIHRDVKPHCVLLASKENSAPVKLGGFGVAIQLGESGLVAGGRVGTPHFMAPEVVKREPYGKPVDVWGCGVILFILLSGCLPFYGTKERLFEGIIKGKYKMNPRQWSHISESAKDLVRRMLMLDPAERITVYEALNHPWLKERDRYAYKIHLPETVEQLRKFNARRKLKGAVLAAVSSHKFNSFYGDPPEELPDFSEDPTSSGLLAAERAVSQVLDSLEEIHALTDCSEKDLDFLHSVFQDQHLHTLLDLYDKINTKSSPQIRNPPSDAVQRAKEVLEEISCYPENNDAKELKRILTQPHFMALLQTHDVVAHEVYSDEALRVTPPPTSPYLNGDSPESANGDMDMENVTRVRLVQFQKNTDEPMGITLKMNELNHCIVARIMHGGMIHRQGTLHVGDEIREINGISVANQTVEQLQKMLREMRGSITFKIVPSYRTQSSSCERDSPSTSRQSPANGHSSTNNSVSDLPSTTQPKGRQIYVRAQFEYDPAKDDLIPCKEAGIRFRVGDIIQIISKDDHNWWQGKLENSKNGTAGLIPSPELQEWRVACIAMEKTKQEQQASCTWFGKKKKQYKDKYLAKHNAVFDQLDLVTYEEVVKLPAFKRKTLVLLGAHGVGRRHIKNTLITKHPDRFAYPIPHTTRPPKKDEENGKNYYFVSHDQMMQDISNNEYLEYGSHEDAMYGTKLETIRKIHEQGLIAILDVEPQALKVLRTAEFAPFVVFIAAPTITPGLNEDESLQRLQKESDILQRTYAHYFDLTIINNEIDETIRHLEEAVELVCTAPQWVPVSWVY
Procedure, shortened: as §1

FLT3(K663Q) = FLT3(K663Q) (Homo sapiens, UniProt P36888, K663Q)
Procedure, shortened: as §1

TNK1 = TNK1 (Homo sapiens, UniProt Q13470)
Procedure, shortened: as §1

PIK3CA = PIK3CA (Homo sapiens, UniProt P42336)
Procedure, shortened: as §1

RAF1 = RAF1 (Homo sapiens, UniProt P04049)
RAF1, sequence (P04049 whole entry): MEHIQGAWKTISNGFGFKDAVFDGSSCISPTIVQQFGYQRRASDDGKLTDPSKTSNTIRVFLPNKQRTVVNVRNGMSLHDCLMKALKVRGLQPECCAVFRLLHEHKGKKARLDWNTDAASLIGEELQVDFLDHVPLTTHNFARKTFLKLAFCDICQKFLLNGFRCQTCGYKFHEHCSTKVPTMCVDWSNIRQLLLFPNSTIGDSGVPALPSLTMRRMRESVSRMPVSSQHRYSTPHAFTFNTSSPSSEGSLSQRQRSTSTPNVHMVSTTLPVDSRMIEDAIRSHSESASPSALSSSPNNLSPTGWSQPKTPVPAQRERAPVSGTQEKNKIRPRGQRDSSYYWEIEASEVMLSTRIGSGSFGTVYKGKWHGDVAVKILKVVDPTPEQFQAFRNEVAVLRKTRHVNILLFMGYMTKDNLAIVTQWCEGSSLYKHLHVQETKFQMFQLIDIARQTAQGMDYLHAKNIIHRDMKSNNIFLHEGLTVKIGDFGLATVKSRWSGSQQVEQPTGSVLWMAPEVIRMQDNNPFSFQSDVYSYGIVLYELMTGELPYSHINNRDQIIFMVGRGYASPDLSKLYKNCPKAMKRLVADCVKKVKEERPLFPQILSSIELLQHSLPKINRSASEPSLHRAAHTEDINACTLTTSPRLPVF
Procedure, shortened: as §1

ZAP70 = ZAP70 (Homo sapiens, UniProt P43403)
Procedure, shortened: as §1

EPHA1 = EPHA1 (Homo sapiens, UniProt P21709)
EPHA1, sequence (P21709 whole entry): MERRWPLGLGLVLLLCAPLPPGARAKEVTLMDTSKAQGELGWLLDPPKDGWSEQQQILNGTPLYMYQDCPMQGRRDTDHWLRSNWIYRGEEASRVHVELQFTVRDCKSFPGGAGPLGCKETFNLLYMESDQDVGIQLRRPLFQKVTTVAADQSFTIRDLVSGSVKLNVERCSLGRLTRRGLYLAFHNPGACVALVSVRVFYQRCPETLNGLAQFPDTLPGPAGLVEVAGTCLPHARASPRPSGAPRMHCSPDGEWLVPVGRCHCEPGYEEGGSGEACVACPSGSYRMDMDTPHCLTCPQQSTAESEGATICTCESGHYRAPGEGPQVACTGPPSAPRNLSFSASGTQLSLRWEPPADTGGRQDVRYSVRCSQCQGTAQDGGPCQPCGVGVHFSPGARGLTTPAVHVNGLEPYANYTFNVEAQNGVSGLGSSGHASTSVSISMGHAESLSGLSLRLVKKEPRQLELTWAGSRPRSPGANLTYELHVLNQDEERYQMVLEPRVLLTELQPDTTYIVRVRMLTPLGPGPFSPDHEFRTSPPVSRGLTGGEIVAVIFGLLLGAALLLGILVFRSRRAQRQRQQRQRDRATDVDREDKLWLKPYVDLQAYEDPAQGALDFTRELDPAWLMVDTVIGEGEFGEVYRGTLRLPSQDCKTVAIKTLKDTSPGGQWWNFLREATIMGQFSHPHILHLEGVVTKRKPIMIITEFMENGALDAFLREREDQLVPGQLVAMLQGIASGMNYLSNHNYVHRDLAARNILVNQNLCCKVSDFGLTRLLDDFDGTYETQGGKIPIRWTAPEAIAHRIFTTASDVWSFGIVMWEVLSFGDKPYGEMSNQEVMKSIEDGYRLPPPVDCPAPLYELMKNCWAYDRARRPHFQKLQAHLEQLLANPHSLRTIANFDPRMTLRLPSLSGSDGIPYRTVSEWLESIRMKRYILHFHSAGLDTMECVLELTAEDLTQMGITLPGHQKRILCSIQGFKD
Procedure, shortened: as §1

AMPK-alpha1 = target: T1, AMPK-alpha1 (Homo sapiens, UniProt Q13131)
T1 construct: gene PRKAA1
Procedure, shortened: as §1

remaining binding at 100 µM (PKN1): 93%
remaining binding at 100 µM (PIKFYVE): 100%
remaining binding at 100 µM (FER): 75%
remaining binding at 100 µM (CAMK1): 75%
remaining binding at 100 µM (HIPK2): 76%
remaining binding at 100 µM (CDK8): 84%
remaining binding at 100 µM (PRKCQ): 75%
remaining binding at 100 µM (CDK9): 85%
remaining binding at 100 µM (KIT(V559D,T670I)): 91%
remaining binding at 100 µM (NEK4): 97%
remaining binding at 100 µM (MAP3K3): 54%
remaining binding at 100 µM (KIT(V559D,V654A)): 80%
remaining binding at 100 µM (FES): 69%
remaining binding at 100 µM (TAOK1): 82%
remaining binding at 100 µM (CASK): 83%
remaining binding at 100 µM (FLT3(K663Q)): 95%
remaining binding at 100 µM (TNK1): 100%
remaining binding at 100 µM (PIK3CA): 79%
remaining binding at 100 µM (RAF1): 99%
remaining binding at 100 µM (ZAP70): 84%
remaining binding at 100 µM (EPHA1): 82%
remaining binding at 100 µM (AMPK-alpha1): 89%
Structure (SMILES): C=C(C)[C@H]1CC=C(C)C(=O)C1 [S-carvone]
